According to patent US8278352B2, “Pesticide compositions and methods” (Commonwealth Scientific & Industrial Research Organisation, priority 2004, dated 2012):
“Also recorded” adds a separate entry of the source. Where a name gives a salt, the structure may show the parent alone.

What was measured:
[1] = 4 tonne outloading trial: fumigant concentration next day; details: 160 g/t, tray of wheat, overnight, 20° C.
Description: During outloading, wheat was treated/fumigated with a 95:5 (w:w) ratio of ethyl formate+methyl isothiocyanate at a rate of 160 g/t. The treated wheat was then transferred by auger into a 4 tonne truck tray and then covered and held overnight (see FIG. 10).

[2] = Stability of ethyl formate and methyl isothiocyanate formulation stored at 25° C.; format: physicochemical; details: for stability when formulated and stored: 25° C., 2 months; for percent of the original fumigant present (M/Mo): formulation stored at 25° C.
Description: The stability of ethyl formate and methyl isothiocyanate as a fumigant formulation stored at 25° C. was assessed for a period of 1 day, 1 month and 2 months. […] This is also graphically represented in FIG. 1.

pupae of S. oryzae = test: Emerging adult study on pupae of S. oryzae; format: in vivo, Sitophilus oryzae; details: 25° C.
Description: Table 4 compares the toxicity of ethyl formate alone and ethyl formate+methyl isothiocyanate to pupae of S. oryzae at 25° C. after 6 hours fumigation at two concentrations.
Table 5 compares the toxicity of ethyl formate alone and ethyl formate+methyl isothiocyanate to pupae of S. oryzae at 25° C. after 24 hours fumigation at two concentrations.

[3] = system: mixed aged cultures (egg, larvae and pupae) of S. oryzae; test: Emerging adult study on mixed aged cultures of S. oryzae; format: in vivo; details: Sitophilus oryzae, 25° C., 6 hours fumigation, read-out: emerging adult population, % of control
Description: Table 3 compares the toxicity of ethyl formate alone and ethyl formate+methyl isothiocyanate to mixed aged cultures (egg, larvae and pupae) of S. oryzae at 25° C. after 6 hours fumigation at two concentrations.

[4] = system: adults of Sitophilus oryzae; test: Toxicity study on adults of Sitophilus oryzae (fumigation, mortality); format: in vivo; details: 25° C., 24 hours fumigation
Description: The insect species studied were laboratory strains of the rice weevil Sitophilus oryzae present as the egg, larvae, pupae or adult and mixed aged cultures thereof in bulk stores of wheat.
Toxicity studies of ethyl formate alone compared with ethyl formate and […] were conducted on adults of the rice weevil Sitophilus oryzae at 25° C. and 24 hours fumigation.

Compound | concentration of fumigant component on the next day [1] | stability when formulated and stored [2] | percent of the original fumigant present (M/Mo) ([2]; 1 Day) [%] | percent of the original fumigant present (M/Mo) ([2]; 1 Month) [%] | percent of the original fumigant present (M/Mo) ([2]; 2 Months) [%] | emerging adult % (pupae of S. oryzae; 34.8 mg/L, 24 hours fumigation) [%] | emerging adult % (pupae of S. oryzae; 67.4 mg/L, 6 hours fumigation) [%] | emerging adult % (pupae of S. oryzae; 67.4 mg/L, 24 hours fumigation) [%] | emerging adult % (pupae of S. oryzae; 101.1 mg/L, 6 hours fumigation) [%] | activity at 67.4 µg/mL ([3]; 67.4 mg/L) [%] | activity at 101.1 µg/mL ([3]; 101.1 mg/L) [%] | mortality ([4]; 5.9 mg/L) | mortality at 5.9 µg/mL ([4]; Sitophilus oryzae, 5.9 mg/L) [%] | mortality at 11.8 µg/mL ([4]; Sitophilus oryzae, 11.8 mg/L) [%]
CN=C=S [MITC, methyl isothiocyanate] | below TLV | stable | 100 | 98 | 101.5 | – | – | – | – | – | – | – | – | –
CCOC=O [EtF, ethyl formate] | below TLV | stable | 100 | 102 | 98.5 | 19 | 24 | 9 | 12 | 27 | 5 | inactive; also recorded: unaffected | 0 | 48
